This is an account of results in patent US20120178815A1, “Compositions of (-)-E-10-OH-NT and Methods for Their Synthesis and Use” (Adolor Corporation, priority 2007, published 2012).

The target of one series is T1, α1b adrenergic receptor (Homo sapiens, UniProt P35368).
T1 construct: expressed in transfected cells; host or cells: CHO cells (membranes)
T1 sequence (P35368 1-520): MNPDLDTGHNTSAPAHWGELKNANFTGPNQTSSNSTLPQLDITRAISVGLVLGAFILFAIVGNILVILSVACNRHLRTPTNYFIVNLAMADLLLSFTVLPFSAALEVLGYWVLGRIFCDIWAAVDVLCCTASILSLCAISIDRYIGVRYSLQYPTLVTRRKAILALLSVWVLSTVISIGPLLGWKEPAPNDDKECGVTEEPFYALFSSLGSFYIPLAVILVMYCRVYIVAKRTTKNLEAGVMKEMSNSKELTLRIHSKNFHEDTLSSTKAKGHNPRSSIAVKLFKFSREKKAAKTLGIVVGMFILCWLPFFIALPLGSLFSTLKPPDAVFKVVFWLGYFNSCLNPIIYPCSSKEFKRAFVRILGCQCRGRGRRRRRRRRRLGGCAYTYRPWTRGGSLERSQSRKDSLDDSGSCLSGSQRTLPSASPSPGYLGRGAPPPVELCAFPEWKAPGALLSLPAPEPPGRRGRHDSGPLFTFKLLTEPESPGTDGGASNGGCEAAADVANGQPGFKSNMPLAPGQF
The series can be described thus: α1b adrenergic receptor binding, [3H]prazocine. As for the experimental part: Affinity for the α1b adrenergic receptor was tested using membranes prepared from Chinese hamster ovary (CHO) cells heterologously expressing the cloned human receptor that were incubated with [^3H]prazocine (0.15 nM) in the presence of various concentrations of test compounds for 1 hour at 22° C. Nonspecific binding was determined in the presence of 10 μM phentolamine. Bound radioactivity was determined by scintillation spectroscopy.

A further series addresses T2, CYP2D6 (Homo sapiens, UniProt P10635).
T2 construct: purchased BD Bioscience
Description: CYP2D6 inhibition, MAMC substrate. Format: in vitro ADME. As to conditions: average of six replicate experiments; for inhibition at 10 µM: human, microsomes containing human recombinant CYP2D6, probe 7-methoxy-4-(aminomethyl)-coumarin (MAMC), 10 μM test compound, read-out: Inhibition of CYP2D6, % inhib. at 10 μM; for IC50: 95% confidence limits in parentheses. On the procedure:
Protocol. The inhibitory activities of AT and NT, (+)-E-10-OH-NT and (−)-E-10-OH-NT on cytochrome P450 function were tested using the methods of Chauret et al., 2001, using 7-methoxy-4-(aminomethyl)-coumarin (MAMC) (Venhorst et al., 2000) as substrate. The source of the enzyme was microsomes containing human recombinant CYP2D6 obtained from BD Bioscience. Conversion of MAMC to 7-hydroxy-4-(aminomethyl)coumarin was measured using a PerkinElmer Fusion with a 390 nm excitation filter and a 460 nm emission filter.

In series [1] the target is T3, human muscarinic receptor M2 (Homo sapiens, UniProt P08172).
T3 construct: expressed in transfected cells; host or cells: CHO cells (membranes)
T3 sequence (P08172 1-466): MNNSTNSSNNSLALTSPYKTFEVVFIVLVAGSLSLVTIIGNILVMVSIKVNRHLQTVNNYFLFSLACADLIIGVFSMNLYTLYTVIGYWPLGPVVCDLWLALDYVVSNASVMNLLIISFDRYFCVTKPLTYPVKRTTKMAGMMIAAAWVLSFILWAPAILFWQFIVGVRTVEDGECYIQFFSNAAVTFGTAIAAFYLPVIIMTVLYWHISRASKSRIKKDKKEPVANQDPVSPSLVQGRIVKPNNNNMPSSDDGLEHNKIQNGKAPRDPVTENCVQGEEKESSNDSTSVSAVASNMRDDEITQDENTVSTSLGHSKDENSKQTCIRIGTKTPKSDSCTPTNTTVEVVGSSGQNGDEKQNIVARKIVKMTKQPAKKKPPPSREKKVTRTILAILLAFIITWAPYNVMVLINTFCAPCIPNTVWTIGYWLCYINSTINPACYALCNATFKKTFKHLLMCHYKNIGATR
The series can be described thus: Muscarinic M2 receptor binding, [3H]AF-DX384. As to conditions: read-out: Affinity for Muscarinic Receptors, M2, Ki. On the procedure: Protocol. […] Bound radioactivity was determined by scintillation spectroscopy. Non-specific binding was defined as the amount of bound radioligand in the presence of 1.0 μM atropine. Radioligand for the M1 receptor was [^3H]pirenzepine (2 nM). Radioligand for the M2 receptor was [^3H]AF-DX384 (2 nM). Radioligand for the M3, M4, and M5 receptors was [^3H]4-DAMP.

The next series deals with T4, α2a adrenergic receptor (Homo sapiens, UniProt P08913).
T4 construct: expressed in transfected cells; host or cells: CHO cells
T4 sequence (P08913 1-465): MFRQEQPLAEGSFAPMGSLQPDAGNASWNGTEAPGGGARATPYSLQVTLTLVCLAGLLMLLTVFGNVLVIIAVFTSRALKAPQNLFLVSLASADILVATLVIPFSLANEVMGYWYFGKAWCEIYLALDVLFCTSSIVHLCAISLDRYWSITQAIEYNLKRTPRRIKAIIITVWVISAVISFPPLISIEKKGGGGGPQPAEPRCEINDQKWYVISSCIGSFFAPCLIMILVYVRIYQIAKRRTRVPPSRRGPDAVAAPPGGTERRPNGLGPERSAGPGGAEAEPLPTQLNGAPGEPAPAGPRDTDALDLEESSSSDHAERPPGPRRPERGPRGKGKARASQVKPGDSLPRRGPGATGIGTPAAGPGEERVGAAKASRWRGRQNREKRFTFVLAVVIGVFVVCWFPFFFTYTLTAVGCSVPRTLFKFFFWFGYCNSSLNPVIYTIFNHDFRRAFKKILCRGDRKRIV
Description: α2a adrenergic receptor binding, [3H]RX821002. As to conditions: for inhibition at 10 µM: read-out: α2a adrenergic receptor, % inhib. at 10 μM. As for the experimental part: Affinity for the α2a adrenergic receptor was tested using CHO cells heterologously expressing the cloned human receptor that were incubated with [^3H]RX821002 (1.0 nM) in the presence of various concentrations of test compounds for 1 hour at 22° C. Nonspecific binding was determined in the presence of 100 μM (−)-epinephrine. Bound radioactivity was determined by scintillation spectroscopy.

For a further series, the target named is T5, α2c adrenergic receptor (Homo sapiens, UniProt P18825).
T5 construct: expressed in transfected cells; host or cells: CHO cells
T5 sequence (P18825 1-462): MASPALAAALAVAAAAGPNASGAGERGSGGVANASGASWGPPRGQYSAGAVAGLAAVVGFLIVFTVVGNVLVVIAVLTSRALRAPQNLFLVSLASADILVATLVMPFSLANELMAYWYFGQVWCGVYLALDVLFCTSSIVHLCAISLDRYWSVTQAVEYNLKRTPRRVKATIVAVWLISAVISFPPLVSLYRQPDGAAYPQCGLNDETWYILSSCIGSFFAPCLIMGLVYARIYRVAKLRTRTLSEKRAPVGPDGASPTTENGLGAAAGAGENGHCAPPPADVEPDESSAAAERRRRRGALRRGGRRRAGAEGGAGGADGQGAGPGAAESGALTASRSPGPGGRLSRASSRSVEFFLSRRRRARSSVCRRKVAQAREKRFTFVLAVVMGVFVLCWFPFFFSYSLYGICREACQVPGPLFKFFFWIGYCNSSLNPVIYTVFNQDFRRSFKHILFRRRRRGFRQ
Description: α2c adrenergic receptor binding, [3H]RX821002. As to conditions: for inhibition at 10 µM: read-out: α2c adrenergic receptor, % inhib. at 10 μM. As for the experimental part:
Nonspecific binding was determined in the presence of 100 μM (−)-epinephrine. Bound radioactivity was determined by scintillation spectroscopy.

Setting [2] is: read-out: Affinity at α1b adrenergic receptor, Ki.

Where two headings read alike, the source gives them in different places.

T2 sequence (P10635 whole entry): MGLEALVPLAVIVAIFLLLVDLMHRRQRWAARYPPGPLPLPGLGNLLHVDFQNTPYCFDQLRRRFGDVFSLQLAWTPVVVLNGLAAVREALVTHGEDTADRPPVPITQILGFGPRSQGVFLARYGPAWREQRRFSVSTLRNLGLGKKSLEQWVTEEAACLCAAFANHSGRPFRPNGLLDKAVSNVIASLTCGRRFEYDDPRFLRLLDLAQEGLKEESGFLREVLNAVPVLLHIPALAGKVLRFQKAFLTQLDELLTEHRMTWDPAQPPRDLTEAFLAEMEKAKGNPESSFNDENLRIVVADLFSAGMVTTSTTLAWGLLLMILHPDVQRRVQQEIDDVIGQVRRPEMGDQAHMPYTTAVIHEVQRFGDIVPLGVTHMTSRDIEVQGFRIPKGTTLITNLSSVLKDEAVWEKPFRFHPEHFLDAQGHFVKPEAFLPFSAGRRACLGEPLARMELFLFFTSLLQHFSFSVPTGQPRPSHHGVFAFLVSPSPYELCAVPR

What is called Ki is a measure of affinity in units of concentration, obtained from inhibition or displacement. For the compound `CNCC/C=C1\c2ccccc2C[C@H](O)c2ccccc21` (stereo in doubt) [(+)-E-10-OH-NT], the Ki on α1b adrenergic receptor (setting [2]) was 690 nM; in series [1] it was 4200 nM. The results for the inhibition at 10 µM on CYP2D6, at α2a adrenergic receptor and at α2c adrenergic receptor were 40%, 15% and 35%, respectively.
For the compound `CNCC/C=C1\c2ccccc2C[C@@H](O)c2ccccc21` (stereo in doubt) [(−)-E-10-OH-NT], the Ki (on α1b adrenergic receptor (setting [2]); in series [1]) was 2600 nM each time. Further, the inhibition at 10 µM on CYP2D6 was 37%; on α2a adrenergic receptor, 23%; at α2c adrenergic receptor it was 30%.
What is called IC50 is the concentration that inhibits the measured activity by half. In the case of `CN(C)CCC=C1c2ccccc2CCc2ccccc21` [AT, amitriptyline, reference compound], the Ki was determined as 5.9 nM at α1b adrenergic receptor (setting [2]); 570 nM on α2a adrenergic receptor (read-out: Affinity at α2a adrenergic receptor, Ki); 13 nM on α2c adrenergic receptor (read-out: Affinity at α2c adrenergic receptor, Ki). Also, the IC50 at CYP2D6 stood at 820 nM.
As for `CNCCC=C1c2ccccc2CCc2ccccc21` [NT, nortriptyline, reference compound], the Ki at α1b adrenergic receptor was 21 nM; in series [1], 220 nM. In addition, the IC50 at CYP2D6 was 700 nM.
